Measurements as given in US20200239530A1, “COMPOUNDS AND METHODS OF MODULATING PROTEIN DEGRADATION” (Vividion Therapeutics, Inc., priority 2017, published 2020).

Tests used:
Experiment in all cases: Cysteine liganding, probe competition
Type in all cases: binding
[1] = target: T1, NT5DC2 5-nucleotidase domain-containing protein 2 (Homo sapiens, UniProt Q9H857)
T1 construct: Cells were resuspended in cold PBS on ice and sonicated with a probe sonicator to achieve lysis; endogenous in cells
Method in brief: (§1)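 Steps: sonicate cells in cold PBS; treat 5 mg/ml lysate with compound (25° C, 1 hr); add desthiobiotin iodoacetamide probe from a 10 mM stock (25° C, 1 hr); precipitate, reduce, alkylate, digest with trypsin; capture labelled peptides on streptavidin for analysis.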

[2] = target: T2, TRIP12 E3 ubiquitin-protein ligase TRIP12 (Homo sapiens, UniProt Q14669); details: TRIP12 Res# 1959, uniprot Q14669
T2 construct: Cells were resuspended in cold PBS on ice and sonicated with a probe sonicator to achieve lysis; endogenous in cells
Method in brief: as §1

[3] = target: T3, VDAC3 Voltage-dependent anion-selective channel protein (Homo sapiens, UniProt Q9Y277); details: VDAC3 Res# 229, uniprot Q9Y277
T3 construct: Cells were resuspended in cold PBS on ice and sonicated with a probe sonicator to achieve lysis; endogenous in cells
Method in brief: as §1

[4] = target: T4, TNF receptor-associated factor 6 (TRAF6) (Homo sapiens, UniProt Q9Y4K3); details: read-out: percent_inhibition
T4 construct: Cells were resuspended in cold PBS on ice and sonicated with a probe sonicator to achieve lysis; endogenous in cells
Method in brief: as §1

[5] = target: T5, AMMECR1L AMMECR1-like protein (Homo sapiens, UniProt Q6DCA0)
T5 construct: 200 μL of lysate containing 5 mg/ml proteome was treated with 2 μL of 100× compound stock; endogenous in cells
T5 sequence (Q6DCA0 whole entry): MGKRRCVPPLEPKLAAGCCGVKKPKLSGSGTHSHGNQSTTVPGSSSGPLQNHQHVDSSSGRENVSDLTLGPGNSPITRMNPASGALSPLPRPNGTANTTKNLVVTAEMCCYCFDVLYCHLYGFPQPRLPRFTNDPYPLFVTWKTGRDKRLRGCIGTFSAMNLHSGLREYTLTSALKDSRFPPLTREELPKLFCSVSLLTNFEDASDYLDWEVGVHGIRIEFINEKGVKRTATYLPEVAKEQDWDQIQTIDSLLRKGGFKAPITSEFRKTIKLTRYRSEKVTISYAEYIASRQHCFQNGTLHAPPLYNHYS
Method in brief: as §1

FDFT1 Squalene synthase = target: T6, FDFT1 Squalene synthase (Homo sapiens, UniProt P37268)
T6 construct: 200 μL of lysate containing 5 mg/ml proteome was treated with 2 μL of 100× compound stock; endogenous in cells
T6 sequence (P37268 1-417): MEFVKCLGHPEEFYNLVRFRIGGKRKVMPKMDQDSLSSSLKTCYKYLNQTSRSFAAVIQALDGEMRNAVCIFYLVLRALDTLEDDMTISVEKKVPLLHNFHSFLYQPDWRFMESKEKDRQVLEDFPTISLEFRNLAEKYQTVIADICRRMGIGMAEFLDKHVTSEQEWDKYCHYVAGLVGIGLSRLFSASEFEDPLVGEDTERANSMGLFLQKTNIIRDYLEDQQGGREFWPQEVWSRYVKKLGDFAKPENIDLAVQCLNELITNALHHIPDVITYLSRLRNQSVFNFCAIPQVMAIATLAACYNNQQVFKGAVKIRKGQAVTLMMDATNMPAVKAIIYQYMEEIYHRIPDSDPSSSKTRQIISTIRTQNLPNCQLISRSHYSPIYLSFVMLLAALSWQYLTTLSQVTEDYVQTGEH
Method in brief: as §1

[6] = target: T7, GCN1L1 Translational activator GCN1 (Homo sapiens, UniProt Q92616)
T7 construct: 200 μL of lysate containing 5 mg/ml proteome was treated with 2 μL of 100× compound stock; endogenous in cells
T7 sequence (Q92616 whole entry): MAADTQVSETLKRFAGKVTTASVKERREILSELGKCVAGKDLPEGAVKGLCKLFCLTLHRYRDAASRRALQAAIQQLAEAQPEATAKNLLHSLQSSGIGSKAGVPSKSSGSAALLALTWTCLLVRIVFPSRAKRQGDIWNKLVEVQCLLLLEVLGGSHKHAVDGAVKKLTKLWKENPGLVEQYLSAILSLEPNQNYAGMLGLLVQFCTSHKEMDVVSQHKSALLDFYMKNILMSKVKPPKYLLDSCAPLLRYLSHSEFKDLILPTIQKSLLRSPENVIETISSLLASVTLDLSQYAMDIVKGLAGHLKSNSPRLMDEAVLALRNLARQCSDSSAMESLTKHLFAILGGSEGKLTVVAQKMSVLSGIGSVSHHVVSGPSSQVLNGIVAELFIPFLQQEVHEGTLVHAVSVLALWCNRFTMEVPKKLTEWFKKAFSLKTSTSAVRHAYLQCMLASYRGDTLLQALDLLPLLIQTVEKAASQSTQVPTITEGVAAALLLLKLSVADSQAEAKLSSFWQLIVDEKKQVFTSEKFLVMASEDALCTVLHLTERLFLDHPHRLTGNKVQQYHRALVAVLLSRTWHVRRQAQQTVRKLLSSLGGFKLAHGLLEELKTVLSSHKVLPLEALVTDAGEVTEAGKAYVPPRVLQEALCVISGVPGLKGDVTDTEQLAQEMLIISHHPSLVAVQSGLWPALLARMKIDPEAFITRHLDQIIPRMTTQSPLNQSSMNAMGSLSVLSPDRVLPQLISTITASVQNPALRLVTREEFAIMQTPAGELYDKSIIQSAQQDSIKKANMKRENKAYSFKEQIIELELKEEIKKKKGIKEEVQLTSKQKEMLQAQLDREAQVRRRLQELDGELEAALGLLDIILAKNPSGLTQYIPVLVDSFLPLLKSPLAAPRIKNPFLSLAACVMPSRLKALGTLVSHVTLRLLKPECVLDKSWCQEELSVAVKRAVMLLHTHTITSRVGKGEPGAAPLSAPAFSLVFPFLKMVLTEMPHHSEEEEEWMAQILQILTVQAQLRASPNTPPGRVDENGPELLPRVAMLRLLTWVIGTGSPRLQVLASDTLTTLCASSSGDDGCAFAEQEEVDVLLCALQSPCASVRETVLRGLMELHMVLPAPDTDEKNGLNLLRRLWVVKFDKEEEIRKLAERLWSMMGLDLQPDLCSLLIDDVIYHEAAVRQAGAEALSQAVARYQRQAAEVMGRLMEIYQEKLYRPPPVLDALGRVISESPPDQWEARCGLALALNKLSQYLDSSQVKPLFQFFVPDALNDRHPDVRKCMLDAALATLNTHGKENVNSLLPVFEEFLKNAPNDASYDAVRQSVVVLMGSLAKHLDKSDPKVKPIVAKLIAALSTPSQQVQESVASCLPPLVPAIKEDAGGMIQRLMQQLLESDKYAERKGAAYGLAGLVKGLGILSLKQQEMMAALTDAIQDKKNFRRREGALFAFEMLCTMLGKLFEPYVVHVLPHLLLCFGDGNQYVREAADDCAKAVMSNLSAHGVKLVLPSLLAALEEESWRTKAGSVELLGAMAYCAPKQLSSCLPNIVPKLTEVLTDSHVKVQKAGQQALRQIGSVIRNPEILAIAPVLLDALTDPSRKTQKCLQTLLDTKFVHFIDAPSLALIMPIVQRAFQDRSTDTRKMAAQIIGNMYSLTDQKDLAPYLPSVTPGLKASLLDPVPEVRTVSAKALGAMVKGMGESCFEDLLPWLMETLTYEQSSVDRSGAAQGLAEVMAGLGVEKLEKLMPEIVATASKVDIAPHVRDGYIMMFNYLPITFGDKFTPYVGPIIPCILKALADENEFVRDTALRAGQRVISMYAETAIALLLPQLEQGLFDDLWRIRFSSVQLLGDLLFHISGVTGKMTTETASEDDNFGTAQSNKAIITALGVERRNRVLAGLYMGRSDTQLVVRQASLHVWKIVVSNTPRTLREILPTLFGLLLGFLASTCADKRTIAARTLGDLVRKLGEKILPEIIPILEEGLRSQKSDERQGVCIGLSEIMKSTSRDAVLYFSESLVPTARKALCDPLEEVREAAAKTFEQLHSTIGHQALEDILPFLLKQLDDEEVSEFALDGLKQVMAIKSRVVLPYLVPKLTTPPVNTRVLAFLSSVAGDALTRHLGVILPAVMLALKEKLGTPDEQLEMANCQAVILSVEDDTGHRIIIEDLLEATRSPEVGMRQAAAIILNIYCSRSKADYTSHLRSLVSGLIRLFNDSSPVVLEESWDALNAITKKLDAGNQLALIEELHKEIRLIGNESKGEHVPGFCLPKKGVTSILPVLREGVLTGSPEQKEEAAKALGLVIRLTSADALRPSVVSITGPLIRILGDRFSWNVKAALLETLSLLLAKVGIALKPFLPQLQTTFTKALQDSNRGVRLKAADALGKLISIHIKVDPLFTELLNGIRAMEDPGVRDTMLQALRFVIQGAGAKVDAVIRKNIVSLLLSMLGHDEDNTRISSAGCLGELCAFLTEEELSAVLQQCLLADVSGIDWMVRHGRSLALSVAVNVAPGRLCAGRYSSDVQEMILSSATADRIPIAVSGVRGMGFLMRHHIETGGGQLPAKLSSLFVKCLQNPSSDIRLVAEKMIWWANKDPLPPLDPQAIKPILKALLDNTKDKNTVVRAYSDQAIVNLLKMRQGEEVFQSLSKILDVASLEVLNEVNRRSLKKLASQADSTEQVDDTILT
Method in brief: as §1

[7] = target: T8, INTS1 Integrator complex subunit 1 (Homo sapiens, UniProt Q8N201)
T8 construct: Cells were resuspended in cold PBS on ice and sonicated with a probe sonicator to achieve lysis; endogenous in cells
T8 sequence (Q8N201 whole entry, one chain of several): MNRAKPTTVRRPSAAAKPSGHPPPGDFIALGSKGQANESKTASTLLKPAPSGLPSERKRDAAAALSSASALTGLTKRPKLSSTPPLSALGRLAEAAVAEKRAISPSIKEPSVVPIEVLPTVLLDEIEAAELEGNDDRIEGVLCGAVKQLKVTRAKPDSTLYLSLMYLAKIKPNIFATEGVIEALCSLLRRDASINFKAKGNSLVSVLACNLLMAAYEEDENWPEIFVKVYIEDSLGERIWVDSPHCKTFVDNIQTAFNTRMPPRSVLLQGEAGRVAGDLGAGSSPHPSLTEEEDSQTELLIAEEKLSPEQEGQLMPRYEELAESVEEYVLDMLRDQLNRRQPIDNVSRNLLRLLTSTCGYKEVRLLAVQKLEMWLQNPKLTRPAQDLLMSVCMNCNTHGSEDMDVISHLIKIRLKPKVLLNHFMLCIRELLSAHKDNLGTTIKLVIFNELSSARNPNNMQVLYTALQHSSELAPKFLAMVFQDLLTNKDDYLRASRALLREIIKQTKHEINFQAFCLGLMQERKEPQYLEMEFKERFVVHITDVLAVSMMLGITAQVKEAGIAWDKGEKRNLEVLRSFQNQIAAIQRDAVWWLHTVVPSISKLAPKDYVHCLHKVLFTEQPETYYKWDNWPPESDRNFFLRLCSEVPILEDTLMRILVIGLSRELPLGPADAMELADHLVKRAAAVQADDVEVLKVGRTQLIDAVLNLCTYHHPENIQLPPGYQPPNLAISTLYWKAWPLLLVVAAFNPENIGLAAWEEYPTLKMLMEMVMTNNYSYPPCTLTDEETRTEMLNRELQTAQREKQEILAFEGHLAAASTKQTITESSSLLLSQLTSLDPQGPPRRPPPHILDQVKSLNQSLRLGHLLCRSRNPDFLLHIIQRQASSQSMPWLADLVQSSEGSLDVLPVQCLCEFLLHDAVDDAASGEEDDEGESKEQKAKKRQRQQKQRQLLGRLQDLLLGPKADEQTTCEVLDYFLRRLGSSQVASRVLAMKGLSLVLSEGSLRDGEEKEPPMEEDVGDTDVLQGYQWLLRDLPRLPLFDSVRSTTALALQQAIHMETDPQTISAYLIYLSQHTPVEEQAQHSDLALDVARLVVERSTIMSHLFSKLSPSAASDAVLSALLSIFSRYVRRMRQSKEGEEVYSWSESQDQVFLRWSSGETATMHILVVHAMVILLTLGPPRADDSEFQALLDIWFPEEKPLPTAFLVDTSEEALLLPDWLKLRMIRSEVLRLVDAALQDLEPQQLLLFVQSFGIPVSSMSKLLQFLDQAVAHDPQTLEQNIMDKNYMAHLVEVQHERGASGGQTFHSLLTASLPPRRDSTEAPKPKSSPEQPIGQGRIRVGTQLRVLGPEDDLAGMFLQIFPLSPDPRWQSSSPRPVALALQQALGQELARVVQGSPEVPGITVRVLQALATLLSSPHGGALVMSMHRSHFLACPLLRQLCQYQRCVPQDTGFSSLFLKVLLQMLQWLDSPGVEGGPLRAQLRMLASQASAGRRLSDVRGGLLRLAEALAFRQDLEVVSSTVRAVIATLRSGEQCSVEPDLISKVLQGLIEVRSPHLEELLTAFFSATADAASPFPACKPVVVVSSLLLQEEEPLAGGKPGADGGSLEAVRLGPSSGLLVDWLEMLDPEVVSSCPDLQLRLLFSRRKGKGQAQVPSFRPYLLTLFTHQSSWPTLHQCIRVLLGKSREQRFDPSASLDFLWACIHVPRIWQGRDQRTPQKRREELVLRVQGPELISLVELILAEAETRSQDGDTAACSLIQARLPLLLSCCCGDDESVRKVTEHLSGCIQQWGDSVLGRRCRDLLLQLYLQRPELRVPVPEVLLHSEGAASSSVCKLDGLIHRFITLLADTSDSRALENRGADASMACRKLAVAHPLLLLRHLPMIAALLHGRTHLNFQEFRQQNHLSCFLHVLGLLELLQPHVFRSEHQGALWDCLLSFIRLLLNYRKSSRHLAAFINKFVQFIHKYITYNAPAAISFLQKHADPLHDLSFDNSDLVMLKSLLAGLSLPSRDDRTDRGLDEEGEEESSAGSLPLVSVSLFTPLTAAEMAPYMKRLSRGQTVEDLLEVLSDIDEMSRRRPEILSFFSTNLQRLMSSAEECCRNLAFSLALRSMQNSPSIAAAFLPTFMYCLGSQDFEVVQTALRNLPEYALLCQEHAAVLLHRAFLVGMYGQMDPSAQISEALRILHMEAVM
Method in brief: as §1

**Q.** For `COc1ccc2c(c1)CCCN2C(=O)CCl` [KB02], which Liganded ([1]; NT5DC2 Res# 504, uniprot Q9H857) is on record?
**A.** Its Liganded is “YES”.

**Q.** And the Liganded ([1]; NT5DC2 Res# 507, uniprot Q9H857)?
**A.** The Liganded was “YES”.

**Q.** And the Liganded [2]?
**A.** The Liganded was “YES”.

**Q.** And the Liganded [3]?
**A.** Its Liganded is “YES”.

**Q.** Which inhibition at 500 µM [4] does the source give for `C=CC(=O)N(c1ccccc1)c1ccc(Br)cc1` [KB05] here?
**A.** The inhibition at 500 µM was 31%.

**Q.** Which Liganded ([5]; AMMECR1L Res# 153, uniprot Q6DCA0) does the source give for `O=C(CCl)Nc1cc(C(F)(F)F)cc(C(F)(F)F)c1` [KBO3] here?
**A.** The Liganded was “YES”.

**Q.** And the “100 Max” value ([5]; uniprot Q6DCA0)?
**A.** The value was 91.46.

**Q.** And the 100 ave ([5]; uniprot Q6DCA0)?
**A.** Its 100 ave is 91.46.

**Q.** And the “500 Max” value ([5]; uniprot Q6DCA0)?
**A.** The value was 85.74.

**Q.** And the 500 ave ([5]; uniprot Q6DCA0)?
**A.** The 500 ave was 85.74.

**Q.** And the Liganded (FDFT1 Squalene synthase; FDFT1 Res# 6, uniprot P37268)?
**A.** The Liganded was “YES”.

**Q.** What about the “100 Max” value (FDFT1 Squalene synthase; uniprot P37268) of the same compound?
**A.** Its value is 59.08.

**Q.** And the 100 ave (FDFT1 Squalene synthase; uniprot P37268)?
**A.** Its 100 ave is 37.7.

**Q.** What about the “500 Max” value (FDFT1 Squalene synthase; uniprot P37268) of the same compound?
**A.** Its value is 82.93.

**Q.** What about the 500 ave (FDFT1 Squalene synthase; uniprot P37268) of the same compound?
**A.** Its 500 ave is 82.93.

**Q.** And the Liganded ([6]; GCN1L1 Res# 648, uniprot Q92616)?
**A.** The Liganded was “YES”.

**Q.** What about the “100 Max” value ([6]; uniprot Q92616) of the same compound?
**A.** The value was 28.59.

**Q.** And the 100 ave ([6]; uniprot Q92616)?
**A.** Its 100 ave is 25.61.

**Q.** And the “500 Max” value ([6]; uniprot Q92616)?
**A.** Its value is 80.3.

**Q.** What about the 500 ave ([6]; uniprot Q92616) of the same compound?
**A.** The 500 ave was 78.745.

**Q.** And the Liganded ([7]; INTS1 Res# 1534, uniprot Q8N201)?
**A.** The Liganded was “YES”.

**Q.** What about the “100 Max” value ([7]; uniprot Q8N201) of the same compound?
**A.** Its value is 51.25.

**Q.** What about the 100 ave ([7]; uniprot Q8N201) of the same compound?
**A.** The 100 ave was 36.495.

**Q.** And the “500 Max” value ([7]; uniprot Q8N201)?
**A.** The value was 77.65.

**Q.** What about the 500 ave ([7]; uniprot Q8N201) of the same compound?
**A.** Its 500 ave is 70.05.
